Source: PMC4577729, “7-(Pyrazol-4-yl)-3H-imidazo[4,5-b]pyridine-based derivatives for kinase inhibition: Co-crystallisation studies with Aurora-A reveal distinct differences in the orientation of the pyrazole N1-substituent” (Bioorganic & Medicinal Chemistry Letters, 2015)

Experiments:
[1] = In vivo mouse pharmacokinetic profiling
Experimental: (§1) The mouse plasma protein binding for 7a and 7d was determined as 99.48% and >99.9%, respectively. […] In an attempt to improve the aqueous solubility, the Aurora inhibitory potency and kinase selectivity of this sub-series, we explored the introduction of basic substituents such as 1-methylpiperazine and pyrrolidine as well as replacement of the phenyl ring with a more polar heterocycle. […] It was anticipated that the introduction of small substituents on the phenyl ring in 7a would be well tolerated without altering its orientation in the kinase active site. Alternatively, we envisaged that Thr217 in Aurora-A may be accessed via an appropriate pyrazole N1-benzyl derivatisation such as a bulky amido substituent, which would form a favourable hydrogen bond interaction with the side chain hydroxyl of Thr217. Similar approaches were previously applied by us in the design of selective inhibitors of Aurora-A.[12,16]

[2] = target: SGK1 (Homo sapiens, UniProt O00141); test: Kinase selectivity profiling; type: biochemical; details: 1 µM, assay duplicates
Sequence of SGK1 (O00141 whole entry): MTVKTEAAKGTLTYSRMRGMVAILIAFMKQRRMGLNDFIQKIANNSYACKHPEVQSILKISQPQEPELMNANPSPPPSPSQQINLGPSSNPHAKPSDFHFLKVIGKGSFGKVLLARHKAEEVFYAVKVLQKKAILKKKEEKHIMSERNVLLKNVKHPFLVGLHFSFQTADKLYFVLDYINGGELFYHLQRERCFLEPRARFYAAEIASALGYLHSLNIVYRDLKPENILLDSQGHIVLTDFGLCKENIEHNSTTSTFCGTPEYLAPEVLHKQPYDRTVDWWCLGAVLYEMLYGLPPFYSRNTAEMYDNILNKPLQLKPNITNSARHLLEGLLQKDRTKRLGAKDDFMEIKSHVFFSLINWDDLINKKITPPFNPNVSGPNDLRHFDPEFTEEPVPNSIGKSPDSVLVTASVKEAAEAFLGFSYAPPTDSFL
In short: (§2)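 Each compound was tested at a single concentration of 1 µM within a broad panel of 102 or 105 protein kinases run by an external profiling centre.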

[3] = target: RIPK2 (Homo sapiens, UniProt O43353); test: Kinase selectivity profiling; type: biochemical; details: 1 µM, assay duplicates
Sequence of RIPK2 (O43353 whole entry): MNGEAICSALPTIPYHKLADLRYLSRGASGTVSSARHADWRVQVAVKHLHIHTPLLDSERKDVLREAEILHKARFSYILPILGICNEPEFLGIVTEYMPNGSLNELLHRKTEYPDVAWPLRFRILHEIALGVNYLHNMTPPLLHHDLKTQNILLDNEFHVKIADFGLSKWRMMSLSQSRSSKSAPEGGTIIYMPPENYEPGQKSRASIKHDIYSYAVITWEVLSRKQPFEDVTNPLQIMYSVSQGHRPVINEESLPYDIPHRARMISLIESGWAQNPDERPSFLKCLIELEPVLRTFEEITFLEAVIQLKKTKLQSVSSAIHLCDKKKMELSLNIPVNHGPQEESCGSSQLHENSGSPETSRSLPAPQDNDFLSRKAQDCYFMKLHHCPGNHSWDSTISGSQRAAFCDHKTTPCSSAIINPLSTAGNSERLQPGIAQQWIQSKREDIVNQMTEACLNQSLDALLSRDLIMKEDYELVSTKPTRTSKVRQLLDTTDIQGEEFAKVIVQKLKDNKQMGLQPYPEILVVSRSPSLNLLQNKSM
In short: as §2

[4] = target: ERK2 (Homo sapiens, UniProt P28482); test: Kinase selectivity profiling; type: biochemical; details: 1 µM, assay duplicates
Sequence of ERK2 (P28482 whole entry): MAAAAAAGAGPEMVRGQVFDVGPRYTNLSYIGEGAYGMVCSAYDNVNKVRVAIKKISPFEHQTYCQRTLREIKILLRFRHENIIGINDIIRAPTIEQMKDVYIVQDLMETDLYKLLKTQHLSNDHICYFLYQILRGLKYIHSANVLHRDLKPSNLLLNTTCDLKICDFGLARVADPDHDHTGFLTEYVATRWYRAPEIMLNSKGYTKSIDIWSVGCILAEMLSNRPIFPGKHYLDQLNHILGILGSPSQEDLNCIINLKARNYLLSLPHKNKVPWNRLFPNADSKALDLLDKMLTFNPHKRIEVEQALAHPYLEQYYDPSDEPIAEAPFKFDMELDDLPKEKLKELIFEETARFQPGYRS
In short: as §2

[5] = target: p38d MAPK (Homo sapiens, UniProt O15264); test: Kinase selectivity profiling; type: biochemical; details: 1 µM, assay duplicates
Sequence of p38d MAPK (O15264 whole entry): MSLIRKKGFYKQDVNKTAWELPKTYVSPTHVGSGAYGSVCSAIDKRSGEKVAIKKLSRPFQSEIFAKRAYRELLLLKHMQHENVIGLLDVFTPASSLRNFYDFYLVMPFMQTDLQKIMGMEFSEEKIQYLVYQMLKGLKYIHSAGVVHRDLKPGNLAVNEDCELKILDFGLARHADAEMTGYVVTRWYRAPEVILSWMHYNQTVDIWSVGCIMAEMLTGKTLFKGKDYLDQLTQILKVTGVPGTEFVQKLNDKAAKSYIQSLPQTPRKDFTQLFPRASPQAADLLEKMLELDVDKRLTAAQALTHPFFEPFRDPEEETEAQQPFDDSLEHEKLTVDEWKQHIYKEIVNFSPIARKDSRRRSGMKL
In short: as §2

[6] = target: SmMLCK (Homo sapiens, UniProt Q15746); test: Kinase selectivity profiling; type: biochemical; details: 1 µM, assay duplicates
Sequence of SmMLCK (Q15746 923-1914): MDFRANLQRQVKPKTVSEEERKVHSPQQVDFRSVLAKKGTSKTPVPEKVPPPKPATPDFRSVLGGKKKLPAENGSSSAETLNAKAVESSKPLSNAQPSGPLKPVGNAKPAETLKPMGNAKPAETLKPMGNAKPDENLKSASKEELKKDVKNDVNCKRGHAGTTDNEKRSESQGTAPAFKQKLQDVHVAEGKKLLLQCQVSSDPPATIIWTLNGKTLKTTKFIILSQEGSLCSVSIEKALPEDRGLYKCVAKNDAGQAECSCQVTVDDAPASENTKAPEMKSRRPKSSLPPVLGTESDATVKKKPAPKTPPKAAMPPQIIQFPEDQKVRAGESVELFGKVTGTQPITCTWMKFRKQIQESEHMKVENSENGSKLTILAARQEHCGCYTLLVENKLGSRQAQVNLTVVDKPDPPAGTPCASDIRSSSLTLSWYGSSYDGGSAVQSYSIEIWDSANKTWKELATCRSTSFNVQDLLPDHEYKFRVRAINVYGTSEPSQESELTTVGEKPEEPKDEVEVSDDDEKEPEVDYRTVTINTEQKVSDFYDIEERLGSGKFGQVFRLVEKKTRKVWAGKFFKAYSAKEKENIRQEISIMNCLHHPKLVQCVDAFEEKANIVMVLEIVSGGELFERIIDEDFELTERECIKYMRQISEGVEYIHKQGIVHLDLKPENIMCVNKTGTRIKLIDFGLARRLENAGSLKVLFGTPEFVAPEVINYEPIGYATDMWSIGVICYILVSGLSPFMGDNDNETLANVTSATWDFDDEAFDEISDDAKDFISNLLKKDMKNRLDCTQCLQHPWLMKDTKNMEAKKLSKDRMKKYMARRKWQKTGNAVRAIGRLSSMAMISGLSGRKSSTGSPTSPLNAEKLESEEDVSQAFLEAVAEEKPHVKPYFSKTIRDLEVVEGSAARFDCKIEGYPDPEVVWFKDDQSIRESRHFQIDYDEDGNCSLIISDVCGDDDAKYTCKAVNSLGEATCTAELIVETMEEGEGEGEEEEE
In short: as §2

[7] = target: SRPK1 (Homo sapiens, UniProt Q96SB4); test: Kinase selectivity profiling; type: biochemical; details: 1 µM, assay duplicates
Sequence of SRPK1 (Q96SB4 whole entry): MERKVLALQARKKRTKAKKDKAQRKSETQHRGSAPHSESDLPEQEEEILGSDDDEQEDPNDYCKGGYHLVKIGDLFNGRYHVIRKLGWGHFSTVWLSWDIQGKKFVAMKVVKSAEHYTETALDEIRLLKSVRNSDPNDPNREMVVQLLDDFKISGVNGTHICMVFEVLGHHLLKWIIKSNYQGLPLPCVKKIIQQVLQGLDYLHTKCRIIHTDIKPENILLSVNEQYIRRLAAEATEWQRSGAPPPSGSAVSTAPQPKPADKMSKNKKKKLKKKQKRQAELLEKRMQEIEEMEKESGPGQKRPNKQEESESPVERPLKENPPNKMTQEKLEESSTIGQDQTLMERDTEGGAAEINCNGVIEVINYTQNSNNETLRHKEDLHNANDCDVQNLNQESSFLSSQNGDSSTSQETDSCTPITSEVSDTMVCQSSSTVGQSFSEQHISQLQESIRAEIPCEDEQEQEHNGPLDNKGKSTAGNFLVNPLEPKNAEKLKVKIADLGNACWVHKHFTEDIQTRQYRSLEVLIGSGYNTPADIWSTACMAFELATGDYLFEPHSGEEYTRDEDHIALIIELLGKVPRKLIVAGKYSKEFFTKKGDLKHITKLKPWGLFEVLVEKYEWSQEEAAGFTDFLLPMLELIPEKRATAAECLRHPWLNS
In short: as §2

[8] = target: PHK (Homo sapiens, UniProt Q16816); test: Kinase selectivity profiling; type: biochemical; details: 1 µM, assay duplicates
Sequence of PHK (Q16816 whole entry): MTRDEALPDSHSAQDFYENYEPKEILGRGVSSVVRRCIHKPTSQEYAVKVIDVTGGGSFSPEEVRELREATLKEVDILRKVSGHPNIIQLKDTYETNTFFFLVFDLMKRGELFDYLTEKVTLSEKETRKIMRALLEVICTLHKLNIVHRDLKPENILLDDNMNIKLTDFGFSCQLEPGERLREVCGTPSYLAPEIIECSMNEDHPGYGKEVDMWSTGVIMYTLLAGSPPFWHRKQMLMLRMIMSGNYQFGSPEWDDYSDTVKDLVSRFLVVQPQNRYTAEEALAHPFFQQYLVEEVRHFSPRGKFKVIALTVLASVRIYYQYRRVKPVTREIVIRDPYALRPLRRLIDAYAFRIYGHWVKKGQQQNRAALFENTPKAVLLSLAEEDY
In short: as §2

[9] = target: TrkA (Homo sapiens, UniProt P04629); test: Kinase selectivity profiling; type: biochemical; details: for TrkA inhibition: 1 μM; for TrkA % activity remaining: 1 µM, assay duplicates
Sequence of TrkA (P04629 33-796): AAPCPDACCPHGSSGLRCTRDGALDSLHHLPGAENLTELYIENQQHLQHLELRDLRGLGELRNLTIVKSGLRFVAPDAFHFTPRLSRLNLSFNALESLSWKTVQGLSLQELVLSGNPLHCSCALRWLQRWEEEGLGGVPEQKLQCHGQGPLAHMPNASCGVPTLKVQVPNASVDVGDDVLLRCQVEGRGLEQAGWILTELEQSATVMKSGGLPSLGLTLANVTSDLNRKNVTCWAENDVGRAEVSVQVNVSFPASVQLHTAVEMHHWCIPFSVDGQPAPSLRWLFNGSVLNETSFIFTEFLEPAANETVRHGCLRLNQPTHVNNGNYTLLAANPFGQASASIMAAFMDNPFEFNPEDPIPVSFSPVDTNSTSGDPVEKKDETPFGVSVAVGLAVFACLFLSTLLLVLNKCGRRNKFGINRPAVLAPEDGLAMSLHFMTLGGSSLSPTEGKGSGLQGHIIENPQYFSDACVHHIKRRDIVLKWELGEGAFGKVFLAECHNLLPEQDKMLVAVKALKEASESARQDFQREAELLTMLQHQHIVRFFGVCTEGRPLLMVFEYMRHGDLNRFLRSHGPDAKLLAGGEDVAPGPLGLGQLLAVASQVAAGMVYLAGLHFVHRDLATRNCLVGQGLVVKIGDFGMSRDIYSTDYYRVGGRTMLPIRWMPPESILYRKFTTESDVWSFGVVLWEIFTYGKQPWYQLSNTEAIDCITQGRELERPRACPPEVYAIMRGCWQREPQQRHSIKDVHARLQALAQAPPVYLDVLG
In short: as §2

[10] = target: MNK2 (Homo sapiens, UniProt Q9HBH9); test: Kinase selectivity profiling; type: biochemical; details: 1 µM, assay duplicates
Sequence of MNK2 (Q9HBH9 whole entry): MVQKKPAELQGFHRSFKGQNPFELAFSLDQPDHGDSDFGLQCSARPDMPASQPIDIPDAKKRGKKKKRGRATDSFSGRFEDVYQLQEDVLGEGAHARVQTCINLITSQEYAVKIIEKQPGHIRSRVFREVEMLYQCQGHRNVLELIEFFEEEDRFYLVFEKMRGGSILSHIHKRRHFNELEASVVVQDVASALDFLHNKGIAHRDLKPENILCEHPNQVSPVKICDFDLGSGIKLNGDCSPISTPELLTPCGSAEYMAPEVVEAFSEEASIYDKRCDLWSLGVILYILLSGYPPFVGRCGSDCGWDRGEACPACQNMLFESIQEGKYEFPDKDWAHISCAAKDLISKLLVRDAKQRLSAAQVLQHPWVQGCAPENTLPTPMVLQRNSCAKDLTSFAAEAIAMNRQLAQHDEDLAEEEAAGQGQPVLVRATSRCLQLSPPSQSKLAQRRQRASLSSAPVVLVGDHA
In short: as §2

[11] = target: T1, Aurora A (Homo sapiens, UniProt O14965); test: Aurora-A autophosphorylation at T288 in HeLa cells; type: cell-based; details: read-out: p-T288 IC50 (Aurora-A autophosphorylation)
T1 sequence (O14965 1-403): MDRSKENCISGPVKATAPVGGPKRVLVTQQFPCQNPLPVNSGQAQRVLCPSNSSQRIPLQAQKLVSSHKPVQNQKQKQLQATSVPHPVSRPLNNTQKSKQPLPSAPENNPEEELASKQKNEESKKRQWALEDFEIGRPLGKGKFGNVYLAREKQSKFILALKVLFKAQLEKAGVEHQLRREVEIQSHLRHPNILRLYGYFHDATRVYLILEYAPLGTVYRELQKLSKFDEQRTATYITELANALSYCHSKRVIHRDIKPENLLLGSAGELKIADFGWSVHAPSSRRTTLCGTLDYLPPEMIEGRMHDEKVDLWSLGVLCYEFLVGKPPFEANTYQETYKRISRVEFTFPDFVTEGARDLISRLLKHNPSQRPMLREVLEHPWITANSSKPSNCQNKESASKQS
Source text: (§3) As part of our medicinal chemistry programme to discover selective inhibitors of Aurora-A,[12] we introduced the 1-benzyl-1H-pyrazol-4-yl moiety at C7 of the imidazo[4,5-b]pyridine scaffold to provide 7a (Table 1). We previously reported 1,3-dimethyl-1H-pyrazol-4-yl as a preferred substituent at the C2 position of the imidazo[4,5-b]pyridine scaffold[11] and this moiety was therefore incorporated into the design of 7a and analogues presented in this study. […] This in vitro profile prompted us to investigate this C7-pyrazole substituted imidazo[4,5-b]pyridine subseries in more detail. Firstly, we attempted to increase biochemical potency against Aurora-A, and also to improve microsomal stability.

[12] = Mouse plasma protein binding; type: in vitro ADME
Experimental: as §1

[13] = Kinetic solubility; type: physicochemical; details: phosphate buffer, pH = 6.8
Experimental: as §1
[23] Solubility measurements were performed by Pharmorphix® Solid State Services, Member of the Sigma–Aldrich Group, Cambridge, UK.

[14] = Protein binding in microsomal incubations (MLM); type: in vitro ADME, mouse
Experimental: (§4) For a better understanding of the microsomal stability data, the protein binding for 7a, 7d and 7e in microsomal incubations was measured. The percentage of 7a unbound in MLM and HLM was determined as 6.71 and 4.89, respectively. Compounds 7d and 7e were more highly bound: for 7d the percentage unbound was 0.50 in both MLM and HLM and for 7e was 0.16 and 0.10, respectively. […] The potent cell-based activity prompted us to investigate kinome selectivity profiles for this class of compound by screening 7a and 7d in a 102-kinase panel at a concentration of 1 μM.[20] […] The Gini coefficient for compound 3 was reported as 0.719,[12] and the corresponding value for compound 1 is 0.560. To understand the potential for further improvement, we obtained the crystal structure of 7a bound to Aurora-A[22] (Fig. 3, Table S3, Supplementary data). […] Similar to crystal structures of previous compounds 1, 15 and 16 (Figs. 1 and 2; compounds 51 and 40c in Ref. [10], and compound 21a in Ref. [11], respectively) the N-benzyl substituent on the C7-pyrazole is oriented towards the P-loop, making Van der Waals contacts with Val147 and Gly142 (Fig. 3).

[15] = target: Aurora B (Homo sapiens, UniProt Q96GD4); test: Histone H3 phosphorylation at S10 in HeLa cells; type: cell-based; details: read-out: p-HH3 IC50 (histone H3 phosphorylation at S10)
Source text: as §3

[16] = Protein binding in microsomal incubations (HLM); type: in vitro ADME, human
Experimental: as §4

[17] = target: EPH-B4 (Homo sapiens, UniProt P54760); test: Kinase selectivity profiling; type: biochemical; details: 1 µM, assay duplicates
In short: as §2

[18] = target: EPH-B2 (Homo sapiens, UniProt P29323); test: Kinase selectivity profiling; type: biochemical; details: 1 µM, assay duplicates
Experimental: (§5) [20] Kinase selectivity profiling for compounds 7a, 7d, 14d and 14g was carried out at the International Centre for Protein Kinase Profiling, Division of Signal Transduction Therapy, University of Dundee.
(§6) Table S2: Kinase selectivity profiling of compounds 14d and 14g in a 105-kinase panel screened at a concentration of 1 µM.

[19] = target: DAPK1 (Homo sapiens, UniProt P53355); test: Kinase selectivity profiling; type: biochemical; details: 1 µM, assay duplicates
Experimental: as §5, §6

[20] = target: CLK2 (Homo sapiens, UniProt P49760); test: Kinase selectivity profiling; type: biochemical; details: 1 µM, assay duplicates
Experimental: as §5, §6

| SMILES | SGK1 % activity remaining [2] | RIPK2 % activity remaining [3] | ERK2 % activity remaining [4] | p38d MAPK % activity remaining [5] | SmMLCK % activity remaining [6] | SRPK1 % activity remaining [7] | PHK % activity remaining [8] | TrkA inhibition [9] | TrkA % activity remaining [9] | MNK2 % activity remaining [10] | also measured |
| --- | --- | --- | --- | --- | --- | --- | --- | --- | --- | --- | --- |
| Cc1nn(C)cc1-c1nc2c(-c3cnn(Cc4ccccc4)c3)c(Cl)cnc2[nH]1 [Compound 7a] | 56% | 40% | 16% | 18% | 51% | 73% | 17% | greater than 80% | 6% | 44% | oral bioavailability [1]: 13%; IC50 [11]: 87 nM; mouse plasma protein binding [12]: 99.48%; kinetic solubility [13]: < 0.1 µg/mL; percentage unbound in MLM [14]: 6.71%; IC50 [15]: 223 nM; percentage unbound in HLM [16]: 4.89% |
| Cc1cc(Cn2cc(-c3c(Cl)cnc4[nH]c(-c5cn(C)nc5C)nc34)cn2)no1 [Compound 14d] | 65% | 49% | 32% | 41% | 43% | 31% | 27% | ≥ 80% | 15% | 32% | EPH-B4 % activity remaining [17]: 86%; EPH-B2 % activity remaining [18]: 60%; DAPK1 % activity remaining [19]: 24%; CLK2 % activity remaining [20]: 2% |
